Consider 2 molecules from patent publication US9050344B2, “Therapeutic compounds” (Gilead Sciences, Inc., priority 2013, dated 2015).

One series relates to HIV-IIIb. The experiment in a line: Test A: Antiviral Assay in MT4 Cells. The class given is cell-based, HIV-1. Particulars: Human immunodeficiency virus 1, IIIB, MT4, 120 h, read-out: % inhibition at 3 μM.
The nature of series [1]: Test B: Cytotoxicity Assay (protocol of Test A, uninfected cells). The series is classed as cell-based. Particulars: human, uninfected MT-4 cells, CellTiter-Glo. Here is the method:
(§1) Test B: Cytotoxicity Assay Compound cytotoxicity and the corresponding CC50 values was determined using the same protocol as described in the antiviral assay (Test A) except that uninfected cells were used.

The test system of a further series is MT-4 cells. The series is described as above. The class given is cell-based. Particulars: uninfected MT-4 cells, 5 days, CellTiter-Glo. As to the method: as §1
A general note: ATP-based viability assays read luminescence as a measure of living cells.

With `Cn1nc(NS(C)(=O)=O)c2cccc(-c3cc(N)cnc3[C@H](Cc3cc(F)cc(F)c3)NC(=O)Cn3nc(C(F)(F)F)c4c3C(F)(F)[C@@H]3C[C@H]43)c21` [Compound 35, N—((S)-1-(5-amino-3-(1-methyl-3-(methylsulfonamido)-1H-indazol-7-yl)pyridin-2-yl)-2-(3,5-difluorophenyl)ethyl)-2-((3bS,4aR)-5,5-difluoro-3-(trifluoromethyl)-3b,4,4a,5-tetrahydro-1H-cyclopropa[3,4]cyclopenta[1,2-c]pyrazol-1-yl)acetamide], the inhibition (as a rule, the change of the read-out against control, counted positive when it falls) at 3 µM in the series on HIV-IIIb worked out at 93%. Moreover, in series [1], the midpoint of cytotoxicity, the CC50 at 5 days, lay at 23.9 µM. For `CC(=O)Oc1ccc(-c2ccc(F)c(C(N)=O)c2)c([C@H](Cc2cc(F)cc(F)c2)NC(=O)Cn2nc(C(F)F)c3c2C(F)(F)CCC3(F)F)n1` [Compound 20B, (S)-5-(3-carbamoyl-4-fluorophenyl)-6-(1-(2-(3-(difluoromethyl)-4,4,7,7-tetrafluoro-4,5,6,7-tetrahydro-1H-indazol-1-yl)acetamido)-2-(3,5-difluorophenyl)ethyl)pyridin-2-yl acetate], the CC50 (in general, the concentration giving 50% cytotoxicity) in the series on MT-4 cells is above 53.2 µM.
